Here are results for eleven molecules from PubChem BioAssay (NCI).

Some test systems named below: OVCAR-8 ovarian; HOP-62 NSCLC; U251 CNS; NCI-H226 lung; LOX IMVI melanoma; HCT-116 colon; TK-10 renal; EKVX NSCLC.
Holding throughout (assay): NCI anticancer screen, dose series, 48 h

Structures are written as SMILES. Several values for one entry are separate records, joined by “and”; a condition that tells them apart may be missing. Identical values can stand only once.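 Five compound concentrations were applied to cells in 96-well plates for 48 hours; endpoints were derived by simple linear interpolation of the resulting dose-response curve. Here, GI50 denotes the concentration required for 50% inhibition of growth. TGI: total growth inhibition.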

`NC(=S)N/N=C/c1ccc(OC(=O)COc2cc(Cl)c(Cl)cc2Cl)cn1`: the GI50 with OVCAR-8 ovarian was 2.26 µM; with HOP-62 NSCLC, 3.68 µM; with U251 CNS, 3.52 µM; in the assay on NCI-H226 lung, 15.8 µM; with LOX IMVI melanoma, 3.09 µM; in the assay with HCT-116 colon, 4.25 µM. Besides, the GI50 with TK-10 renal is 41.9 µM. Further, the TGI in the assay with OVCAR-8 ovarian was > 100 µM; in the assay with HOP-62 NSCLC, 38.4 µM; in the assay with U251 CNS, > 100 µM; in the assay on NCI-H226 lung it was 56.7 µM; with LOX IMVI melanoma it was 26.6 µM; with HCT-116 colon it was > 100 µM. Besides, the TGI in the assay with TK-10 renal was > 100 µM.

Turning to `Nc1ncc(-c2ccc3ncnc(Nc4cccc(Cl)c4)c3c2)cn1`, the GI50 in the assay with OVCAR-8 ovarian was 2.87 µM; with HOP-62 NSCLC, 0.388 µM and 2.98 µM; with U251 CNS, 0.538 µM; in the assay with NCI-H226 lung, 0.294 µM. Also, the TGI in the assay with OVCAR-8 ovarian and with HOP-62 NSCLC was > 100 µM throughout.

Consider `Cc1c(Cn2c(C)nc3c(C(=O)O)cc(N4CCOCC4)cc32)cccc1C(F)(F)F`, for which the GI50 in the assay on OVCAR-8 ovarian is 33.7 µM; in the assay on HOP-62 NSCLC, 37.5 µM; in the assay on U251 CNS, 49.5 µM; with NCI-H226 lung it was 67.2 µM; with LOX IMVI melanoma, 60.7 µM; in the assay with HCT-116 colon, 42.1 µM. Also, the GI50 in the assay on TK-10 renal was 34 µM. The TGI with OVCAR-8 ovarian, in the assay on HOP-62 NSCLC, in the assay with U251 CNS, with NCI-H226 lung, in the assay with LOX IMVI melanoma and in the assay on HCT-116 colon was > 100 µM each time. In addition, the TGI in the assay with TK-10 renal is > 100 µM.

On to `CCC1=C(c2ccc(OC)cc2)C(C)(C)Oc2c1ccc(O)c2CN1CCCC1`, for which the GI50 in the assay with OVCAR-8 ovarian was 2.11 µM; with HOP-62 NSCLC, 1.99 µM; in the assay with U251 CNS, 1.48 µM; in the assay with NCI-H226 lung it was 2.45 µM; with EKVX NSCLC, 18.6 µM; in the assay with LOX IMVI melanoma it was 1.46 µM. Further, the GI50 with TK-10 renal was 5.26 µM. The TGI in the assay on OVCAR-8 ovarian was 4.94 µM; in the assay with HOP-62 NSCLC, 7.03 µM; in the assay with U251 CNS, 3.04 µM; with NCI-H226 lung, 14.7 µM; in the assay with EKVX NSCLC, > 100 µM; in the assay on LOX IMVI melanoma, 2.8 µM. This molecule also had a TGI in the assay with TK-10 renal of 31.3 µM.

As for `Oc1ccccc1-c1nn(CNc2ccc(Cl)cc2)c(=S)o1`, the GI50 with OVCAR-8 ovarian was 30.2 µM; in the assay with HOP-62 NSCLC, > 100 µM; with U251 CNS it was 31.9 µM; with NCI-H226 lung, 14.1 µM; in the assay on EKVX NSCLC, > 100 µM; in the assay with HCT-116 colon, 18.2 µM. Also, in the assay with TK-10 renal, the GI50 is 1.53 µM. Moreover, the TGI in the assay with OVCAR-8 ovarian was 89.9 µM; in the assay with HOP-62 NSCLC it was > 100 µM; with U251 CNS, > 100 µM; in the assay with NCI-H226 lung it was > 100 µM; in the assay with EKVX NSCLC, > 100 µM; with HCT-116 colon it was 51.4 µM. In addition, in the assay with TK-10 renal, the TGI was > 100 µM.

In the case of `COc1ccc2c(c1)CCC1C2CC[C@@]2(C)C1CC[C@@H]2NC(=O)Cc1ccc(O)c(O)c1` (some centres undefined), the GI50 in the assay with OVCAR-8 ovarian is 8.71 µM; in the assay with U251 CNS, 4.94 µM; in the assay with NCI-H226 lung, 10.1 µM; in the assay with EKVX NSCLC, 13.5 µM; in the assay with LOX IMVI melanoma, 8.15 µM; with HCT-116 colon, 3.53 µM. In the assay with TK-10 renal, the GI50 is 8.86 µM. Moreover, the TGI was determined as 30.8 µM with OVCAR-8 ovarian; 18.8 µM with U251 CNS; 35.3 µM in the assay with NCI-H226 lung; 31.4 µM in the assay with EKVX NSCLC; 20.6 µM in the assay on LOX IMVI melanoma; 18.9 µM with HCT-116 colon. This molecule showed a TGI with TK-10 renal of 22.1 µM.

As for `C=C(C)[C@@H]1CC[C@]2(CO)CC[C@]3(C)[C@H](CC[C@@H]4[C@@]5(C)CCCNC(C)(C)[C@@H]5CC[C@]43C)[C@@H]12`, the GI50 is 1.83 µM in the assay on OVCAR-8 ovarian; 1.81 µM in the assay on HOP-62 NSCLC; 1.65 µM with U251 CNS; 1.98 µM with NCI-H226 lung; 1.55 µM in the assay with EKVX NSCLC; 1.29 µM in the assay on HCT-116 colon. In addition, the GI50 in the assay on TK-10 renal is 1.76 µM. In addition, the TGI was found to be 3.51 µM in the assay with OVCAR-8 ovarian; 3.42 µM in the assay on HOP-62 NSCLC; 3.09 µM in the assay with U251 CNS; 4.09 µM with NCI-H226 lung; 3.03 µM in the assay on EKVX NSCLC; 2.63 µM in the assay with HCT-116 colon. In the assay with TK-10 renal, this molecule displayed a TGI of 3.5 µM.

Consider `C[C@@H]1C[C@H](N)C[C@H](c2ccncc2NC(=O)c2ccc(F)c(-c3c(F)cccc3F)n2)C1`, for which the GI50 is 17.1 µM and > 10 µM with OVCAR-8 ovarian; 10.6 µM and > 10 µM in the assay with HOP-62 NSCLC; 12 µM and > 10 µM with U251 CNS; 4.35 µM and > 10 µM with EKVX NSCLC; 10.6 µM and > 10 µM in the assay with LOX IMVI melanoma; 12.1 µM and 6.94 µM with HCT-116 colon. For the same molecule, the GI50 in the assay with TK-10 renal is 13.1 µM and > 10 µM. Moreover, the TGI is 32.8 µM and > 10 µM in the assay with OVCAR-8 ovarian; 25.2 µM and > 10 µM in the assay with HOP-62 NSCLC; 24.7 µM and > 10 µM in the assay with U251 CNS; 21.1 µM and > 10 µM with EKVX NSCLC; 23.3 µM and > 10 µM in the assay on LOX IMVI melanoma; 24.4 µM and > 10 µM in the assay with HCT-116 colon. Further, in the assay on TK-10 renal, the TGI was 26.8 µM and > 10 µM.

For the molecule `CC1=CCC2CC1C(C(=O)c1c[nH]c3ccccc13)=NC2(C)C` (centres undefined), the TGI with OVCAR-8 ovarian, with HOP-62 NSCLC, with U251 CNS, in the assay with NCI-H226 lung, in the assay on EKVX NSCLC and in the assay with LOX IMVI melanoma was > 100 µM in each case. For the same molecule, the TGI in the assay on HCT-116 colon is > 100 µM.

Consider `CC1=C([Te]c2ccccc2)C(=O)c2ccccc2C1=O`, for which the GI50 in the assay on OVCAR-8 ovarian is 0.374 µM; with HOP-62 NSCLC, 0.266 µM; in the assay with U251 CNS, 0.331 µM; in the assay with EKVX NSCLC, 0.207 µM; in the assay on LOX IMVI melanoma, 0.311 µM; in the assay on HCT-116 colon, 0.284 µM. Further, the GI50 in the assay with TK-10 renal is 1.71 µM. The TGI worked out at 4.35 µM in the assay with OVCAR-8 ovarian; 0.762 µM in the assay on HOP-62 NSCLC; 1.56 µM in the assay with U251 CNS; 0.76 µM in the assay with EKVX NSCLC; 1.49 µM in the assay on LOX IMVI melanoma; 0.901 µM in the assay with HCT-116 colon. In the assay with TK-10 renal, this molecule registered a TGI of 4.05 µM.

For `CCC(CC)n1cnc2c(-c3cnc(N)cn3)nc(N3CC4CCC(C3)O4)nc21`, the GI50 was 0.769 µM in the assay with OVCAR-8 ovarian; 1.08 µM in the assay on HOP-62 NSCLC; 1.3 µM in the assay with U251 CNS; 0.549 µM in the assay on NCI-H226 lung; 0.428 µM in the assay with LOX IMVI melanoma; 0.63 µM in the assay on HCT-116 colon. For the same molecule, the GI50 with TK-10 renal is 0.168 µM. The TGI in the assay with OVCAR-8 ovarian, with HOP-62 NSCLC, in the assay on U251 CNS, in the assay on NCI-H226 lung, in the assay on LOX IMVI melanoma and with HCT-116 colon was > 100 µM throughout. Also, the TGI in the assay with TK-10 renal turned out to be 5.15 µM.
